The values that follow come from article PMC5411959, “Potential Antiosteoporotic Natural Product Lead Compounds That Inhibit 17β-Hydroxysteroid Dehydrogenase Type 2” (Journal of Natural Products, 2017).

One data set deals with T1, human 17β-HSD1 (Homo sapiens, UniProt P14061).
T1 construct: expressed in transfected cells; host or cells: HEK-293 (ATCC), used as cell lysate
T1 sequence (P14061 1-328): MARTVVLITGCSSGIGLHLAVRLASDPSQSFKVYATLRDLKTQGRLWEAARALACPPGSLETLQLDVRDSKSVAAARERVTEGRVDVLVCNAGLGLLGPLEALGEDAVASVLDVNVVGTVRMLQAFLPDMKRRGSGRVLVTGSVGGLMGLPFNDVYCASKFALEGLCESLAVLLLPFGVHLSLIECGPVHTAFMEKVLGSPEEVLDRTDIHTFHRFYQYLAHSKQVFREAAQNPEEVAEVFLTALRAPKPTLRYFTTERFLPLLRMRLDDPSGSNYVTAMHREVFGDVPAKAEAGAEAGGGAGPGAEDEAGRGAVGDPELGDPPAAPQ
Nature of the data set: 17β-HSD1 activity assay using lysates of HEK-293 cells expressing the recombinant human enzyme. The format is biochemical. As to conditions: for selectivity factor: 17β-HSD1 versus 17β-HSD2; for IC50: HEK-293 lysates, 200 nM estrone, 500 μM NADPH; for 17β-HSD1 inhibition (in words; n.i. = no inhibition): screened at 20 μM.

The target in a further data set is T2, human 17β-HSD2 (Homo sapiens, UniProt P37059).
T2 construct: expressed in transfected cells; host or cells: HEK-293 (ATCC), used as cell lysate
T2 sequence (P37059 1-387): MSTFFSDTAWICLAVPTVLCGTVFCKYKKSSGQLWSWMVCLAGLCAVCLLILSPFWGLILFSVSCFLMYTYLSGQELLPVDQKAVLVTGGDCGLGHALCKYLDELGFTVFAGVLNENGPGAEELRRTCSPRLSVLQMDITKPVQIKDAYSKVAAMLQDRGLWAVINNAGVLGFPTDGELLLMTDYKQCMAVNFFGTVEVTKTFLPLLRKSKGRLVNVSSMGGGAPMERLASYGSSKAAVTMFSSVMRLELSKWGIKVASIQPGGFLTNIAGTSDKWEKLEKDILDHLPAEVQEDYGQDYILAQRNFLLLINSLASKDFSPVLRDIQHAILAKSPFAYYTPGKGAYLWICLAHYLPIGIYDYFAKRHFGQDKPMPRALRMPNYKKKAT
Nature of the data set: 17β-HSD2 activity assay using lysates of HEK-293 cells expressing the recombinant human enzyme.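 On all read-outs here: conversion of tritium-labelled estradiol (200 nM, with 500 µM NAD+, 10 min) quantified after TLC separation by scintillation counting, at least three independent measurements.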 The format is biochemical. As to conditions: for IC50: HEK-293 lysates, 200 nM estradiol, 500 μM NAD+, 10 min 37 °C.

A further data set deals with 17β-HSD. The arrangement: method as in PMID 11731908. Particulars: cited from earlier work.
Data set [1] is described as follows: Compound stability in the test system (repeated and prolonged incubation, thawing-freezing cycles). The format is physicochemical. Particulars: prolonged incubation, IC50 in weeks 1 and 3, thawing-freezing cycles. From the text:
extent these PAINS should be excluded from further research. Much more data is needed to finally provide directions for the use of PAINS filters4.
Besides these general aspects of PAINS, there are of course many arguments about curcumin itself as a hit. We are aware of the compound’s many reported bioactivities observed in in vitro studies and additionally of its very poor bioavailability. However, this study is a proof of concept study identifying many natural products inhibiting 17β-HSD2 when there is direct access to the binding site and we categorize curcumin as one of them. Why? A very recent analysis of curcumin data […]
Criterion 1. Look for evidence of compound stability in assay buffer/media, including when molecular models are invoked as supporting evidence of target engagement.
We observed no significant changes in inhibition in the experimental repetition also when the incubation time was prolonged. Actually, the assay duration is only 10 minutes and the compound has direct access to the binding site when using cell […]
Criterion 2. Look for the presence of detergent and thiol-scavenging reagents in biochemical assays to mitigate the impact of chemical aggregation and nonspecific thiol reactivity. Are/were any additional counterscreens performed to rule out these phenomena? […]
reactivity would alter the enzymes activities. Also this has not been observed.

The test system of the next data set is human ERα. On the set-up: method as in PMID 25106881. Particulars: reported; read-out: ERα activation EC50; cited from earlier work.

Bounds are passed on as bounds.

As a reminder, the IC50 is the point on the concentration scale where inhibition reaches its midpoint. As for `COc1cc(C[C@@H](C)[C@H](C)Cc2ccc(O)c(OC)c2)ccc1O` [compound 4, (−)-dihydroguaiaretic acid], on human 17β-HSD1, the selectivity factor is listed as 8 and the 50% inhibitory concentration (IC50) was determined as 7700 ± 2200 nM. Moreover, the “selectivity over 17β-HSD1” value at human 17β-HSD1 (17β-HSD2 over 17β-HSD1) is given as not below 8 fold. The IC50 on human 17β-HSD2 turned out to be 940 ± 20 nM. Further, the “effect on 17β-HSD activity in placenta microsomes” value with 17β-HSD is “no effects”.

Usually remaining activity stands for the signal under treatment as a percentage of the control signal. Regarding `COc1cc(/C=C/C(=O)CC(=O)/C=C/c2ccc(O)c(OC)c2)ccc1O` [compound 3, curcumin], in data set [1], the “stability in the test system” value was “seemed to be stable”. Also, the selectivity factor entry at human 17β-HSD1 is listed as “∼12”. In addition, the remaining activity at 20 µM on human 17β-HSD1 (read-out: 17β-HSD1 remaining activity at 20 μM) was 52.2 ± 7.1%. Moreover, the “IC50 values with 0.1% Triton-X100 added, versus absence of detergent” value at human 17β-HSD2 (0.1% Triton-X100 in reaction mixture) is listed as “comparable”. Besides, the IC50 at human 17β-HSD2 was found to be 1730 ± 200 nM.

`O=C(/C=C/c1ccc(O)c(O)c1)O[C@H](Cc1ccc(O)c(O)c1)C(=O)O` [compound 11, rosmarinic acid]: on human 17β-HSD1, the “17β-HSD1 inhibition (in words; n.i. = no inhibition)” value was “n.i. ^a”. Further, the IC50 on human 17β-HSD2 was determined as 3720 ± 170 nM.

For the compound `O=C(Cc1ccc(O)c(Cl)c1)NCCc1c[nH]c2ccccc12` [compound 17, N-(2-(1H-indol-3-yl)ethyl)-2-(3-chloro-4-hydroxyphenyl)acetamide], the “17β-HSD1 inhibition (in words; n.i. = no inhibition)” value on human 17β-HSD1 is “n.i”. Further, the IC50 on human 17β-HSD2 came out at 980 ± 240 nM.

Take `O=C(Cc1ccc(O)c(Cl)c1)NCCc1ccccc1` [compound 13, 2-(3-chloro-4-hydroxyphenyl)-N-phenethylacetamide]: the “17β-HSD1 inhibition (in words; n.i. = no inhibition)” value on human 17β-HSD1 was “n.i”. In addition, the concentration for half-maximal inhibition (IC50) on human 17β-HSD2 amounted to 1570 ± 160 nM.

For orientation: EC50 means the concentration at which the effect is half-maximal. As to `O=c1c(-c2ccc(O)cc2O)coc2cc(O)cc(O)c12` [compound 9, 2′-hydroxygenistein], the EC50 in the data set with human ERα is 6100 nM. In addition, at human 17β-HSD1, the selectivity factor was 0.5 and the IC50 came out at 1090 ± 60 nM. On human 17β-HSD2, the 50% inhibitory concentration (IC50) is 2030 ± 370 nM. Also, the “classification (17β-HSD2 inhibition)” value on human 17β-HSD2 (flavonoid SAR model, Table 4) is recorded as “active”.
